{"source": "patent US20070213310A1", "about": "“Prodrugs for Use as Ophthalmic Agents” (priority 2002, published 2007)", "key": {"[1]": {"tested_on": "Human retinal ganglial cells (RGC)", "experiment": "Viability of retinal ganglial cells (RGC) incubated with glutamate", "assay_type": "cell-based", "conditions": "for effect on RGC viability, compound alone: without glutamate; for RGC killed by glutamate in the presence of the compound: glutamate 5 mM plus compound (three concentrations)", "method": "Human retinal ganglial cells (RGC) were incubated with glutamate (5 mM), the estrogen analogue 3,17-dihydroxyestra-1,3,5(10),9(11)-tetraene (ZYC1) or combination of glutamate and various concentrations of ZYC1.\nRGC were treated with glutamate (5 mM) in the presence or absence of ZYC1."}, "[2]": {"experiment": "Lipid peroxidation inhibition, ferric thiocyanate (FTC) method", "assay_type": "biochemical", "conditions": "inhibition of lipid peroxidation", "text": "(§1) Because lipid peroxidation (LPO) is a common marker of damage induced by reactive oxygen species (ROS) (Gutteridge JMC, “Lipid-peroxidation and antioxidants as biomarkers of tissue-damage,” Clin Chem, 41: 1819-1828 (1995); Kaur and Geetha, “Screening methods for antioxidants—A review,” Mini-Rev Med Chem, 6: 305-312 (2006)), two assays were employed to measure capacity to inhibit LPO: the ferric thiocyanate (FTC) and the thiobarbituric acid reactive substances (TBARS) methods. With these assays, the autoxidation of linoleic acid (a lipid model) is measured in the absence and, then, presence of different concentration of antioxidants. […] During the oxidation process, peroxide is gradually decomposed to lower molecular-weight compounds such as malondialdehyde (MDA) that is measured by the TBARS method (Kikuzaki and Nakatani, J Food Sci, 58: 1407-1410 (1993)). […]\n(§2) The TBARS assay is a widely adopted and sensitive method for measurement of lipid peroxidation (Callaway J K, Beart P M and Jarrott B. “A reliable procedure for comparison of antioxidants in rat brain homogenates.” J Pharmacol Toxicol Meth, 39: 155-162 (1998)). […] The MDA-TBA complex measured by the TBARs assay is a gauge of LOOH formation (Janero D R. “Malondialdehyde and thiobarbituric acid-reactivity as diagnostic indices of lipid peroxidation and peroxidative tissue injury.” Free Rad Biol Med, 9: 515-540 (1990)). […]"}, "[3]": {"experiment": "Lipid peroxidation inhibition, thiobarbituric acid reactive substances (TBARS) method", "assay_type": "biochemical", "conditions": "inhibition of lipid peroxidation", "text": "as §1, §2"}, "[4]": {"experiment": "logP measured by the shake-flask method", "assay_type": "physicochemical"}, "[5]": {"conditions": "37° C.", "quoted_text": "By way of example, conversion of Formula II by NAD(P)H as an endogenous reducing agent was tested. […] At incremental time points, 100 μl aliquots were removed into ice-cold centrifuge tubes, and 100 μl of glacial acetic acid was added. After immediate extraction with ethyl acetate, the organic layer was evaporated under nitrogen stream. […] For the control experiment, no reducing agent was used.\nLiquid chromatography separation was done using a Supelco (Bellfonte, Pa.) 5 cm×2.1 mm i.d. Discovery HS C-18 reversed-phase column with 0.25 ml/min water:methanol:2-propanol:acetic acid:dichloromethane (53:35:5:5:2, v/v) as a mobile phase. The sample residues were dissolved in 40 μl of mobile phase, respectively, and 5 μl of the solution was injected for analysis. Mass spectra were recorded on a quadruple ion-trap instrument (LCQ®, ThermoFinnigan, San Jose, Calif.) using positive-ion atmospheric-pressure chemical ionization (APCI) as the method of ionization. MS/MS and MS^3 product-ion scans were obtained after collision-induced dissociation (CID) with helium as the target gas. […] As an internal standard, 1,3,5(10)-estratrien-17α-ethynyl-17β-ol was added before each sample extraction."}}, "note": "Entries after “also recorded” stand apart in the source; their conditions may differ. Read-outs that look alike come from different tables or passages of the source."}
{"smiles": "C[C@]12CC[C@@H]3c4cc(C56CC7CC(CC(C7)C5)C6)c(O)cc4CC[C@H]3[C@@H]1CCC2=O", "note": "[ZYC3, 2-(1-adamantyl)-3-hydroxyestra-1,3,5(10)-trien-17-one]", "values": [{"measurement": "effect on RGC viability, compound alone", "setting": "[1]", "result": "no affect"}, {"measurement": "RGC killed by glutamate in the presence of the compound", "setting": "[1]", "result": "killed significantly fewer cells"}, {"measurement": "IC50", "setting": "[2]", "result": "5.3 ± 1.2", "unit": "µM"}, {"measurement": "IC50", "setting": "[3]", "result": "5.8 ± 1.3", "unit": "µM"}]}
{"smiles": "C[C@]12CC[C@@H]3c4cc(C56CC7CC(CC(C7)C5)C6)c(O)cc4CC[C@H]3[C@@H]1CC[C@@H]2O", "note": "[2-(1-adamantyl)-estra-1,3,5(10)-triene-3,17β-diol]", "values": [{"measurement": "IC50", "setting": "[2]", "result": "1.5 ± 0.1", "unit": "µM"}, {"measurement": "IC50", "setting": "[3]", "result": "0.75 ± 0.11", "unit": "µM"}, {"measurement": "logP", "setting": "[4]", "result": 6.51}]}
{"smiles": "N[C@@H](CCC(=O)O)C(=O)O", "note": "[glutamate, reference compound]", "values": [{"measurement": "RGC killed by glutamate", "setting": "[1]; glutamate 5 mM alone", "result": "about 70%"}]}
{"smiles": "C[C@]12CC[C@H]3[C@@H](CCC4=CC(=O)C(C56CC7CC(CC(C7)C5)C6)=C[C@@]43O)[C@@H]1CC[C@@H]2O", "note": "[2-(1-adamantyl)-10β,17β-dihydroxyestra-1,4-dien-3-one]", "values": [{"measurement": "logP", "setting": "[4]; n-octanol/water, shake-flask, read-out: logPexp", "result": 3.26}]}
{"smiles": "C[C@]12CC[C@H]3[C@@H](CCC4=CC(=O)C=C[C@@]43O)[C@@H]1CCC2=O", "note": "[estrone quinol, 10β-hydroxyestra-1,4-diene-3,17-dione]", "values": [{"measurement": "rate of conversion", "setting": "[5]; 10-fold excess NADPH, 0.1 mM quinol, 0.1M sodium phosphate buffer pH 7.5", "result": "6e-07 ± 4e-08", "unit": "M/min"}, {"measurement": "formation of estrone", "setting": "[5]; incubation with NADH or NADPH, pH 7.5", "result": "clearly detectable"}]}
{"smiles": "C[C@]12CC=C3c4ccc(O)cc4CC[C@H]3[C@@H]1CCC2O", "note": "(some centres unmarked) [ZYC1, 3,17-dihydroxyestra-1,3,5(10),9(11)-tetraene]", "values": [{"measurement": "effect on RGC viability, compound alone", "setting": "[1]", "result": "no effect"}, {"measurement": "RGC killed by glutamate in the presence of the compound", "setting": "[1]", "result": "killed significantly fewer cells; also recorded: reduced the number of RGC killed by glutamate"}]}
{"smiles": "C[C@]12CC[C@@H]3c4ccc(O)cc4C[C@@H](CCCCCCCCC[S+]([O-])CCCC(F)(F)C(F)(F)F)[C@H]3[C@@H]1CC[C@@H]2O", "note": "(some centres unmarked) [IC1182,780, reference compound]", "values": [{"measurement": "antagonism of ZYC1 protection of RGC", "setting": "[1]; glutamate 5 mM, ZYC1 plus various concentrations of estrogen receptor antagonist", "result": "little antagonism"}]}
